Source: the Deep4Chem optical property database

Assay: solvent given as SMILES
[1] = in O=P(c1ccccc1)(c1ccccc1)c1ccccc1Oc1ccccc1P(=O)(c1ccccc1)c1ccccc1

N#CSC1=CC2=C(c3ccccc3)c3cc(SC#N)c(N4CCOCC4)n3[B-](F)(F)[N+]2=C1N1CCOCC1
emission maximum (in CC#N): 628 nm | emission maximum (in CCCCCC): 623 nm | emission maximum (in CCOC(C)=O): 628 nm | emission maximum (in CO): 620 nm | emission maximum (in ClCCl): 630 nm

c1ccc2c3c(ccc2c1)-c1c2ccccc2cc2cccc-3c12
emission maximum (in CCCCCCC): 603 nm

CCOC(=O)CCOc1ccc(C(c2c(C)[nH]c3ccccc23)c2c(C)[nH]c3ccccc23)cc1OC
emission maximum (in C1CCCCC1): 330 nm | emission maximum (in CC#N): 344 nm | emission maximum (in CO): 350 nm | emission maximum (in O): 351 nm

CCn1c2ccc(S(=O)(=O)O)cc2c(=O)c2cc3c(cc21)c(=O)c1cc(S(=O)(=O)O)ccc1n3CCCCCC(=O)O
emission maximum (in O): 559 nm

O=C1c2cccc3c(C#CC#Cc4ccc5c6c(cccc46)C(=O)N(c4ccccc4)C5=O)ccc(c23)C(=O)N1c1ccccc1
emission maximum (in ClCCl): 440 nm

COC(=O)C([NH3+])Cc1ccc2oc(-c3ccncc3)nc2c1 (stereo not drawn)
emission maximum (in CC1CCCCC1): 356.11 nm | emission maximum (in CC#N): 367.92 nm | emission maximum (in CO): 379.88 nm | emission maximum (in O): 402.82 nm

CN(C)c1ccc(C#Cc2ccc(-c3nc(C#N)c(C#N)n3C)cc2)cc1
emission maximum (in C1CCCCC1): 406 nm | emission maximum (in CC#N): 514 nm | emission maximum (in CO): 489 nm | emission maximum (in ClC(Cl)Cl): 479 nm

C(=C\c1ccc(N(c2ccc(/C=C/c3ccc(N(c4ccccc4)c4ccccc4)cc3)cc2)c2ccc(-c3nc4ccccc4nc3-c3ccc(N(c4ccc(/C=C/c5ccc(N(c6ccccc6)c6ccccc6)cc5)cc4)c4ccc(/C=C/c5ccc(N(c6ccccc6)c6ccccc6)cc5)cc4)cc3)cc2)cc1)/c1ccc(N(c2ccccc2)c2ccccc2)cc1
emission maximum (in C1CCOC1): 532 nm | emission maximum (in Cc1ccccc1): 521 nm

c1ccc2c(c1)OP1(=NP(Oc3ccc4ccc5cccc6ccc3c4c56)(Oc3ccc4ccc5cccc6ccc3c4c56)=NP(Oc3ccc4ccc5cccc6ccc3c4c56)(Oc3ccc4ccc5cccc6ccc3c4c56)=N1)Oc1ccccc1-2
emission maximum (in ClCCl): 457 nm

COc1ccc(C#Cc2nc3ccccc3nc2-c2csc(OC)c2)cc1
emission maximum (in ClCCl): 508 nm

CCCCCCn1c2cc(/C=C(\C#N)c3cccs3)ccc2c2ccc(/C=C(\C#N)c3cccs3)cc21
emission maximum (in ClC(Cl)Cl): 469.48 nm

CC1(C)C(/C=C/C2=C(c3ccc(C(=O)O)cc3)C(=C/C=C3/N(CCCCS(=O)(=O)[O-])c4ccccc4C3(C)C)/CC2)=[N+](CCCCS(=O)(=O)[O-])c2ccccc21
emission maximum (in CO): 816 nm

CN1c2ccccc2C(O)(c2ccccc2)c2cc([N+](=O)[O-])ccc21 (stereo not drawn)
emission maximum (in C1CCOC1): 501.3 nm | emission maximum (in CC#N): 557 nm | emission maximum (in CCO): 536.2 nm | emission maximum (in CO): 544.7 nm | emission maximum (in CS(C)=O): 566.8 nm | emission maximum (in Cc1ccccc1): 480.7 nm

F[Si](c1c2ccccc2cc2ccccc12)(c1c2ccccc2cc2ccccc12)c1c2ccccc2cc2ccccc12
emission maximum (in C1CCOC1): 416 nm | emission maximum (in ClC(Cl)Cl): 434 nm

CCN(CC)c1ccc2c(c1)OC1=C(/C=C/C3=[N+](C)c4ccc5ccccc5c4C3(C)C)CCCC1=C2c1ccccc1C(=O)O
emission maximum (in CC#N): 763 nm | emission maximum (in CCO): 750 nm | emission maximum (in CO): 753 nm | emission maximum (in ClC(Cl)Cl): 761 nm

Cc1cc(O)c(C(=O)/C=C/c2ccccc2Cl)c(=O)o1
emission maximum (in CC#N): 481 nm | emission maximum (in ClCCl): 469 nm

C=CCOc1ccc(-c2nc3cc(C(NC(=O)OC(C)(C)C)C(=O)OC)ccc3o2)cc1 (stereo not drawn)
emission maximum (in CC1CCCCC1): 329 nm | emission maximum (in CC#N): 333 nm | emission maximum (in CO): 353 nm

CC1(C)C(/C=C/C2=C(c3ccc(C(=O)O)cc3)C(=C/C=C3/N(CCCCS(=O)(=O)[O-])c4ccc5ccccc5c4C3(C)C)/CCC2)=[N+](CCCCS(=O)(=O)[O-])c2ccc3ccccc3c21
emission maximum (in CO): 811 nm

CCc1c(C)c2n(c1C)[B-](F)(F)[N+]1=C(C=C3C=Cc4ccccc43)C=CC1=C2C
emission maximum (in C1CCCCC1): 596 nm

CN(C)c1ccc(/C=C/c2cc[n+](CCCCCCCCCCCC[n+]3ccc(/C=C/c4ccc(N(C)C)cc4)cc3)cc2)cc1
emission maximum (in CC1COC(=O)O1): 602 nm | emission maximum (in CC#N): 602 nm | emission maximum (in CC(C)=O): 602 nm | emission maximum (in CC(C)O): 590 nm | emission maximum (in CCO): 593 nm | emission maximum (in CN(C)C=O): 602 nm | emission maximum (in CO): 597 nm | emission maximum (in CS(C)=O): 607 nm | emission maximum (in ClC(Cl)Cl): 580 nm | emission maximum (in O): 597 nm | emission maximum (in c1ccncc1): 598 nm

N#Cc1cc(-n2c3ccccc3c3cccnc32)c(-n2c3ccccc3c3cccnc32)cc1C#N
emission maximum (in CC#N): 504.42 nm | emission maximum (in CCCCCC): 386.98 nm | emission maximum (in Cc1ccccc1): 417.44 nm | emission maximum (in ClCCl): 468.37 nm | emission maximum (in c1cc(-n2c3ccccc3c3ccccc32)cc(-n2c3ccccc3c3ccccc32)c1): 441.06 nm

COc1ccc(-c2nc(-c3ccc(OC)cc3)c(-c3ccc(OC)cc3)[nH]2)cc1
emission maximum (in CO): 389 nm

CB1C=Cc2ccc3ccccc3c2N1
emission maximum (in C1CCCCC1): 373 nm

BrC1=CN2C[n+]3cc(Br)cc(Br)c3N=C2C(Br)=C1
emission maximum (in CS(C)=O): 494 nm

NNC(=O)N1C(=O)c2cc(S(=O)(=O)[O-])cc3c(N)c(S(=O)(=O)[O-])cc(c23)C1=O
emission maximum (in O): 535 nm

COc1ccc2c(c1)c1cc(OC)ccc1n2-c1cccc(-n2c3ccc(OC)cc3c3cc(OC)ccc32)c1C#N
emission maximum (in Cc1ccccc1): 460 nm | emission maximum [1]: 462 nm

CCCN1C(=O)C(=CC=CC=C2Oc3ccccc3N2CCCS(=O)(=O)[O-])C(=O)N(CCC)C1=S
emission maximum (in C1COCCO1): 584 nm | emission maximum (in CC(C)=O): 580 nm | emission maximum (in CCCCO): 583 nm | emission maximum (in CCCO): 581 nm | emission maximum (in CCO): 579 nm | emission maximum (in CO): 577 nm | emission maximum (in ClC(Cl)Cl): 589 nm | emission maximum (in O): 573 nm

CC(C)(C)c1ccc(C2=CC3=C(c4ccccc4)c4cc(-c5ccc(C(C)(C)C)cc5)c(-c5ccc(C(C)(C)C)cc5)n4[B-](F)(F)[N+]3=C2c2ccc(C(C)(C)C)cc2)cc1
emission maximum (in C1CCCCC1): 643 nm | emission maximum (in C1CCOC1): 649 nm | emission maximum (in CC#N): 647 nm | emission maximum (in Cc1ccccc1): 649 nm | emission maximum (in ClCCl): 649 nm

CCCCCCN1C(=O)c2cccc3c(-c4ccc(-c5cc(-c6ccccc6)nn5-c5ccccc5)s4)ccc(c23)C1=O
emission maximum (in ClCCl): 517 nm

CC1=C(C)C(c2c(C)c(C)c3n2[B-](F)(F)[N+]2=C(C)C(C)=C(C)C2=C3)=[N+]2C1=Cc1c(C)c(C)c(C)n1[B-]2(F)F
emission maximum (in ClCCl): 650 nm

N#Cc1c(N2CCCCC2)cc(-c2ccc3ccc4cccc5ccc2c3c45)c2c1Cc1ccccc1-2
emission maximum (in C1CCOC1): 481 nm

COc1ccc(N(c2ccc(C=C(c3ccccc3)c3ccccc3)cc2)c2ccc(OC)cc2)cc1
emission maximum (in Cc1ccccc1): 489 nm

CCCCCCCCN1C(=O)c2ccc3c4c(-c5ccc(-n6c7ccccc7c7ccccc76)cc5)cc5c6c(cc(-c7ccc(-n8c9ccccc9c9ccccc98)cc7)c(c7ccc(c2c37)C1=O)c64)C(=O)N(CCCCCCCC)C5=O
emission maximum (in ClC(Cl)Cl): 651 nm

O=C(c1ccc(-n2c3ccccc3c3cc(-n4c5ccccc5c5ccccc54)ccc32)cc1)c1ccc(-n2c3ccccc3c3cc(-n4c5ccccc5c5ccccc54)ccc32)cn1
emission maximum (in Cc1ccccc1): 462 nm | emission maximum [1]: 475 nm

C[Si]1(C)c2cc(-c3ccc(-c4cccs4)s3)ccc2C=Cc2ccc(-c3ccc(-c4cccs4)s3)cc21
emission maximum (in ClCCl): 463 nm
